Results: ChEMBL document CHEMBL1932945, “One-pot regioselective synthesis of tetrahydroindazolones and evaluation of their antiproliferative and Src kinase inhibitory activities” (Bioorg Med Chem Lett, 2012)
The source made the active and inactive calls. No cut-off for these calls is given here.

Experiments:
[1] = target: Proto-oncogene tyrosine-protein kinase Src (Homo sapiens, UniProt P12931); assay: Inhibition of His6-tagged c-Src kinase domain using AEEEIYGEFEAKKKK as substrate pre-incubated for 10 mins before substrate addition measured after 30 mins by Transcreener ADP2 FI Assay
[2] = test system: HT-29; assay: Antiproliferative activity against human HT-29 cells overexpressing c-Src at 50 uM after 72 hrs by Cell titer assay; format: functional; conditions: for inhibition at 50 µM: HT-29, 72 h
[3] = test system: SK-OV-3; assay: Antiproliferative activity against human SKOV3 cells overexpressing c-Src at 50 uM after 72 hrs by Cell titer assay; format: functional; conditions: for inhibition at 50 µM: SK-OV-3, 72 h

Chain of Proto-oncogene tyrosine-protein kinase Src (P12931 2-536 limits assumed): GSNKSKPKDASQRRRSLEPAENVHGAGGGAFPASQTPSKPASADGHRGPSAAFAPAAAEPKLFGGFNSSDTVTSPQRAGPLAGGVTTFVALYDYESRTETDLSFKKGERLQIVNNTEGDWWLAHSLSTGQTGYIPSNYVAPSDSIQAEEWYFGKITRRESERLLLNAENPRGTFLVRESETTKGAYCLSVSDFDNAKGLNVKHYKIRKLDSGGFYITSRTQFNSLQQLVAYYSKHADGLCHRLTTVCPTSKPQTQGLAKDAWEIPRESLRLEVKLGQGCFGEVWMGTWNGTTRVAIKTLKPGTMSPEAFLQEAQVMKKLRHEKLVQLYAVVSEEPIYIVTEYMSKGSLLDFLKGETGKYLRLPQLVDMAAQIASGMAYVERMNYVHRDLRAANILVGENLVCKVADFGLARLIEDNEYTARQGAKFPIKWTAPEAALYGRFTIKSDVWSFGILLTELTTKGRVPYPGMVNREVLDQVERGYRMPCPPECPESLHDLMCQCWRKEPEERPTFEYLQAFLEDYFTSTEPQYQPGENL

IC50 [1] [µM]	Compound	inhibition [2]	inhibition [3]	inhibition at 50 µM [2] [%]	inhibition at 50 µM [3] [%]
> 150	COc1ccc(-n2nc3c(c2-c2ccc(Cl)c(Cl)c2)C(=O)CCC3)cc1	Active	Active	–	–
> 150	O=C1CCCc2nn(-c3ccc([N+](=O)[O-])cc3)c(-c3ccc(Cl)c(Cl)c3)c21	Active	Active	–	–
> 150	CC1(C)CC(=O)c2c(nn(-c3ccc[nH]3)c2-c2ccc(Cl)c(Cl)c2)C1	Active	Active	–	–
> 150	O=C1CCCc2nn(-c3ccccc3F)c(-c3ccc(Cl)c(Cl)c3)c21	Active	Active	–	–
> 150	Cc1ccc(-n2nc3c(c2-c2ccc(C(C)(C)C)cc2)C(=O)CC(C)(C)C3)cc1	Active	Active	–	–
> 150	O=C1CCCc2nn(-c3ccc(O)cc3)c(-c3ccc(Cl)c(Cl)c3)c21	Active	Active	–	–
> 150	CC1(C)CC(=O)c2c(nn(-c3ccc(Cl)cc3)c2-c2ccc(C(C)(C)C)cc2)C1	Active	Active	–	–
86	CC1(C)CC(=O)c2c(nn(-c3ccc(Cl)c(Cl)c3)c2-c2ccc(Cl)cc2)C1	Active	Active	–	–
> 150	COc1ccc(-n2nc3c(c2-c2ccc(Cl)c(Cl)c2)C(=O)CC(C)(C)C3)cc1O	Active	Active	–	–
62.1	CC1(C)CC(=O)c2c(nn(-c3ccccc3)c2-c2ccc(Cl)c(Cl)c2)C1	Active	Active	–	–
65.8	O=C1CCCc2nn(-c3ccccc3)c(-c3ccc(Cl)c(Cl)c3)c21	–	Active	65	–
> 150	Cc1ccc(-n2nc3c(c2-c2ccc(Cl)c(Cl)c2)C(=O)CC(C)(C)C3)cc1	Active	Active	–	–
77.3	CC1(C)CC(=O)c2c(nn(-c3cccs3)c2C2CCCCC2)C1	–	–	48	49
57.7	Cc1ccc(-n2nc3c(c2C2CCCCC2)C(=O)CCC3)cc1	Active	Active	–	–
> 150	COc1ccc(-n2nc3c(c2-c2ccc(C(C)(C)C)cc2)C(=O)CC(C)(C)C3)cc1OC	–	Active	65	–
81	O=C1CCCc2nn(-c3ccc(Cl)cc3)c(-c3ccc(Cl)c(Cl)c3)c21	Active	Active	–	–
> 150	CC1(C)OC(=O)c2c(nn(-c3ccc(Cl)cc3)c2C2CCCCC2)O1	Active	Active	–	–

IC50 [1] [µM]	Compound	inhibition [2]	inhibition [3]	inhibition at 50 µM [2] [%]	inhibition at 50 µM [3] [%]
58.4	O=C1CCCc2nn(-c3cccc(Cl)c3)c(C3CCCCC3)c21	Active	Active	–	–
> 150	Cc1ccc(-n2nc3c(c2-c2ccc(Cl)c(Cl)c2)C(=O)CCC3)cc1	–	–	48	49
132	Cc1ccc(-c2c3c(nn2-c2ccc(Cl)cc2)CC(C)(C)CC3=O)cc1Cl	Active	Active	–	–
> 150	CC1(C)CC(=O)c2c(nn(-c3ccc([N+](=O)[O-])cc3)c2C2CCCCC2)C1	Active	Active	–	–
> 150	O=C1CCCc2nn(-c3cccs3)c(-c3ccc(Cl)c(Cl)c3)c21	–	–	62	58
> 150	CC1(C)CC(=O)c2c(nn(-c3ccc([N+](=O)[O-])cc3)c2-c2ccc(Cl)c(Cl)c2)C1	Active	Active	–	–
35.1	COc1ccc(-n2nc3c(c2-c2ccc(C(C)(C)C)cc2)C(=O)CC(C)(C)C3)cc1	Active	Active	–	–
82.7	COc1cccc(-n2nc3c(c2-c2ccc(C)c(Cl)c2)C(=O)CCC3)c1	Active	Active	–	–
> 150	CC1(C)OC(=O)c2c(nn(-c3ccc(Cl)cc3)c2-c2ccc(C(C)(C)C)cc2)O1	Active	Active	–	–
94.1	COc1ccc(-n2nc3c(c2-c2ccc(Cl)c(Cl)c2)C(=O)CC(C)(C)C3)cc1	Active	Active	–	–
> 150	COc1ccc(-n2nc3c(c2-c2ccc(Cl)c(Cl)c2)C(=O)CCC3)cc1O	Active	Active	–	–
74.3	Cc1ccc(-c2c3c(nn2-c2ccncc2)CC(C)(C)CC3=O)cc1Cl	–	Active	65	–
66.6	CC1(C)CC(=O)c2c(nn(-c3ccc(O)cc3)c2-c2ccc(Cl)c(Cl)c2)C1	Active	Active	–	–
> 150	CC1(C)CC(=O)c2c(nn(-c3cccs3)c2-c2ccc(Cl)c(Cl)c2)C1	Active	Active	–	–
> 150	Cc1ccc(-c2c3c(nn2-c2ccc[nH]2)CC(C)(C)CC3=O)cc1Cl	Active	Active	–	–
–	COc1cccc2c1C(=O)c1c(O)c3c(c(O)c1C2=O)C[C@@](O)(C(=O)CO)C[C@@H]3O[C@H]1C[C@H](N)[C@H](O)[C@H](C)O1	Active	Active	–	–
